Positions count from the first letter of the chain named. Read-outs that look alike come from different tables or passages of the source.
Legend:
[1] = molecular target: T1, Full-length zebrafish α1 GlyR (Danio rerio, UniProt O93430); experiment: Whole cell dose-response, FL GlyR; assay type: cell-based
T1 sequence (O93430 25-444): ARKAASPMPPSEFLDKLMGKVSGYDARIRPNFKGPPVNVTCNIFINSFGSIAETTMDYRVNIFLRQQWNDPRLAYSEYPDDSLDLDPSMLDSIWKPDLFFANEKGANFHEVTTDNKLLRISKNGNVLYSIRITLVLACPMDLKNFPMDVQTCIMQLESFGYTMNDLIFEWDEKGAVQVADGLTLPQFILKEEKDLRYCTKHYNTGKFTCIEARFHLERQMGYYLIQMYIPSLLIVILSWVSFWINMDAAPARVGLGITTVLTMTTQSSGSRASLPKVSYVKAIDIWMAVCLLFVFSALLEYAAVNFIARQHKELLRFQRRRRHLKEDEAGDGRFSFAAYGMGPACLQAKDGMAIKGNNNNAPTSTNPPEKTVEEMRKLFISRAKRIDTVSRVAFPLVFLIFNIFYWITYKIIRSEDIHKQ

[2] = molecular target: T2, FL receptor (full-length zebrafish α1 glycine receptor) (Danio rerio, UniProt O93430); experiment: Ligand binding with 3H-strychnine by SPA, FL receptor in SMA
T2 sequence (O93430 25-444): T1 sequence (O93430 25-444)

[3] = molecular target: T3, YYY mutant (F115Y/F175Y/F223Y) of GlyR (Danio rerio, UniProt O93430, F123Y/F183Y/F231Y); experiment: Single-channel open probability, YYY mutant; assay type: cell-based, zebrafish; details: 100 mM GABA; similar Po in the YYY mutant as in the FL receptor
T3 sequence (O93430 25-444 F123Y/F183Y/F231Y): T1 sequence (O93430 25-444) with F99Y, F159Y, F207Y

[4] = molecular target: T4, YGF mutant of zebrafish α1 glycine receptor (Danio rerio, UniProt O93430, F183Y/Y185F); experiment: Ligand binding with 3H-strychnine by SPA, YGF mutant in SMA
T4 sequence (O93430 25-444 F183Y/Y185F): T1 sequence (O93430 25-444) with F159Y, Y161F

[5] = molecular target: T5, F175Y/Y177F variant (YGF) of zebrafish α1 GlyR (Danio rerio, UniProt O93430, F183Y/Y185F); experiment: Cell-attached single-channel recording, cluster open probability, YGF mutant; assay type: cell-based; details: HEK293A cells, single-channel clusters, 100 mM GABA
T5 sequence (O93430 25-444 F183Y/Y185F): T1 sequence (O93430 25-444) with F159Y, Y161F

[6] = test system: GlyR Ser294 to cysteine mutant; details: S294C vs wild type; ref Lynch et al., 2001; cited from earlier work
[7] = molecular target: T5, F175Y/Y177F variant (YGF) of zebrafish α1 GlyR; experiment: Whole cell dose-response, YGF mutant; assay type: cell-based; details: HEK293A, ± SEM, n≥6 cells
[8] = molecular target: T1, Full-length zebrafish α1 GlyR; experiment: Macroscopic currents in outside-out patches, fast agonist application

| Compound | EC50 [1] [µM] | Ki [2] [µM] | agonist efficacy (Po) in YYY mutant compared with FL receptor [3] | Ki [4] [µM] | Po [5] [%] | EC50 ([1]; FL GlyR, whole cell, HEK293A, -40 mV, ± SEM, n≥6 cells) [µM] | increase of glycine EC50 by mutation of Ser294 to cysteine [6] | EC50 [7] [µM] | current left at the end of the 1-s pulse, range over patches ([8]; 10 mM glycine, 8 patches) | current left at the end of the 1-s pulse, patch shown ([8]; 10 mM glycine, single outside-out patch of Figure S1A) [%] | current left, % of peak, after 1 s application (desensitization), average ([8]; saturating (10 mM) glycine, outside-out patches, n=8 patches) [%] |
| --- | --- | --- | --- | --- | --- | --- | --- | --- | --- | --- | --- |
| NCCCC(=O)O [GABA, γ-amino butyric acid] | 28400 ± 900 | 1410 ± 940 | remained a weak partial agonist | 180 ± 70 | 92 ± 2 | – | – | – | – | – | – |
| NCCS(=O)(=O)O [taurine] | 1050 ± 80 | – | – | – | 95 ± 5 | – | – | – | – | – | – |
| NCC(=O)O [glycine] | – | – | – | – | – | 190 ± 20 | ~ 5 fold | 33 ± 3 | 17–89% | 17 | 57 ± 8 |

Source: article PMC8115384 (Cell, 2021)
